row,melting point,Structure (SMILES)
1,84 °C,"CCOCC(=O)N[C@H]1CC[C@H](CCN2CCC(c3cccc(C(F)(F)F)c3)CC2)CC1 [Example 83, 2-Ethoxy-N-(4-{2-[4-(3-trifluoromethylphenyl)piperidin-1-yl]ethyl}cyclohexyl)acetamide]"
2,134 °C,"COCCCC(=O)N[C@H]1CC[C@H](CCN2CCC(c3cccc(C(F)(F)F)c3)CC2)CC1 [Example 84, 4-Methoxy-N-(4-{2-[4-(3-trifluoromethylphenyl)piperidin-1-yl]ethyl}cyclohexyl)butanamide]"
3,138 °C,"COCC(=O)N[C@H]1CC[C@H](CCN2CCN(c3cccc(C#N)c3)CC2)CC1 [Example 86, N-(4-{2-[4-(3-Cyanophenyl)piperazin-1-yl]ethyl}cyclohexyl)-2-methoxyacetamide]"
4,207 °C,"O=C(CC(F)(F)F)N[C@H]1CC[C@H](CCN2CCN(c3ccccc3F)CC2)CC1 [Example 87, 3,3,3-Trifluoro-N-(4-{2-[4-(2-fluorophenyl)piperazin-1-yl]ethyl}cyclohexyl)propanamide]"
5,172 °C,"O=C(COc1ccccc1)N[C@H]1CC[C@H](CCN2CCN(c3ccccc3F)CC2)CC1 [Example 88, N-(4-{2-[4-(2-Fluorophenyl)-piperazin-1-yl]ethyl}cyclohexyl)-2-phenoxyacetamide]"
6,156 °C,"CCC(=O)C(=O)N[C@H]1CC[C@H](CCN2CCN(c3ccccc3F)CC2)CC1 [Example 89, N-(4-{2-[4-(2-Fluorophenyl)-piperazin-1-yl]ethyl}cyclohexyl)-2-oxobutanamide]"
7,188 °C,"N#CCC(=O)N[C@H]1CC[C@H](CCN2CCN(c3cccc(C#N)c3)CC2)CC1 [Example 90, 2-Cyano-N-(4-{2-[4-(3-cyanophenyl)piperazin-1-yl]ethyl}cyclohexyl)acetamide trans/cis 75/25]"
8,155 °C,"COCC(=O)N[C@H]1CC[C@H](CCN2CCN(c3cccc(F)c3F)CC2)CC1 [Example 91, N-(4-{2-[4-(2,3-Difluorophenyl)-piperazin-1-yl]ethyl}cyclohexyl)-2-methoxyacetamide]"
9,201 °C,"COCCCC(=O)N[C@H]1CC[C@H](CCN2CCN(c3cc(F)c(F)c(F)c3F)CC2)CC1 [Example 93, 4-Methoxy-N-(4-{2-[4-(2,3,4,5-tetrafluorophenyl)piperazin-1-yl]ethyl}cyclohexyl)butyramide]"
10,96 °C,"CC(C)OCC(=O)N[C@H]1CC[C@H](CCN2CCN(c3ccccc3F)CC2)CC1 [Example 97, N-(4-{2-[4-(2-Fluorophenyl)-piperazin-1-yl]ethyl}cyclohexyl)-2-isopropoxyacetamide]"
11,180 °C,"N#CCCCC(=O)N[C@H]1CC[C@H](CCN2CCN(c3cc(F)c(F)c(F)c3F)CC2)CC1 [Example 98, 4-Cyano-N-(4-{2-[4-(2,3,4,5-tetrafluorophenyl)piperazin-1-yl]ethyl}cyclohexyl)butyramide]"
12,172 °C,"COCCCC(=O)N[C@H]1CC[C@H](CCN2CCN(c3ccccc3)CC2)CC1 [Example 99, 4-Methoxy-N-{4-[2-(4-phenylpiperazin-1-yl)ethyl]cyclohexyl}butanamide]"
13,144 °C,"CC(C)OCC(=O)N[C@H]1CC[C@H](CCN2CCN(c3cccc(C(F)(F)F)c3C#N)CC2)CC1 [Example 101, N-(4-{2-[4-(2-Cyano-3-trifluoromethylphenyl)piperazin-1-yl]ethyl}cyclohexyl)-2-isopropoxyacetamide]"
14,173 °C,"CCOCC(=O)N[C@H]1CC[C@H](CCN2CCN(c3cccc(C(F)(F)F)c3C#N)CC2)CC1 [Example 102, N-(4-{2-[4-(2-Cyano-3-trifluoromethylphenyl)piperazin-1-yl]ethyl}cyclohexyl)-2-ethoxyacetamide]"
15,222 °C,"N#CCC(=O)N[C@H]1CC[C@H](CCN2CCN(c3cccc(C(F)(F)F)c3C#N)CC2)CC1 [Example 103, 2-Cyano-N-(4-{2-[4-(2-cyano-3-trifluoromethylphenyl)piperazin-1-yl]ethyl}cyclohexyl)acetamide]"
16,187 °C,"CC(=O)NCC(=O)N[C@H]1CC[C@H](CCN2CCN(c3cccc(C(F)(F)F)c3)CC2)CC1 [Example 105, 2-Acetylamino-N-(4-{2-[4-(3-trifluoromethylphenyl)piperazin-1-yl]ethyl}cyclohexyl)acetamide]"
17,196 °C,"N#CCC(=O)N[C@H]1CC[C@H](CCN2CCN(c3cc(C(F)(F)F)cc(C(F)(F)F)c3)CC2)CC1 [Example 107, N-(4-{2-[4-(3,5-Bistrifluoro-methylphenyl)piperazin-1-yl]ethyl}cyclohexyl)-2-cyanoacetamide]"
18,135 °C,"CCOCC(=O)N[C@H]1CC[C@H](CCN2CCN(c3cc(C(F)(F)F)cc(C(F)(F)F)c3)CC2)CC1 [Example 108, N-(4-{2-[4-(3,5-Bistrifluoro-methylphenyl)piperazin-1-yl]ethyl}cyclohexyl)-2-ethoxyacetamide]"
19,145 °C,"CC(C)(C)c1cc(N2CCN(CC[C@H]3CC[C@H](NC(=O)CC#N)CC3)CC2)nc(C(C)(C)C)n1 [Example 111, 2-Cyano-N-(4-{2-[4-(2,6-di-tert-butylpyrimidin-4-yl)piperazin-1-yl]ethyl}cyclohexyl)acetamide trans/cis 65/35]"

row,melting point,Structure (SMILES)
1,140 °C,"CCOCC(=O)N[C@H]1CC[C@H](CCN2CCN(c3cccc(F)c3F)CC2)CC1 [Example 112, N-(4-{2-[4-(2,3-Difluorophenyl)-piperazin-1-yl]ethyl}cyclohexyl)-2-ethoxyacetamide]"
2,190 °C,"N#CCC(=O)N[C@H]1CC[C@H](CCN2CCN(c3cccc(F)c3F)CC2)CC1 [Example 113, 2-Cyano-N-(4-{2-[4-(2,3-difluorophenyl)piperazin-1-yl]ethyl}cyclohexyl)acetamide]"
3,221 °C,"Cc1cccc(N2CCN(CC[C@H]3CC[C@H](NC(=O)CC#N)CC3)CC2)c1C#N [Example 114, 2-Cyano-N-(4-{2-[4-(2-cyano-3-methylphenyl)piperazin-1-yl]ethyl}cyclohexyl)acetamide]"
4,207 °C,"Cc1cccc(N2CCN(CC[C@H]3CC[C@H](NC(=O)CC(F)(F)F)CC3)CC2)c1C#N [Example 115, N-(4-{2-[4-(2-Cyano-3-methylphenyl)piperazin-1-yl]ethyl}cyclohexyl)-3,3,3-trifluoropropanamide]"
5,175 °C,"N#CCC(=O)N[C@H]1CC[C@H](CCN2CCN(c3cccc4c3CCCC4)CC2)CC1 [Example 116, 2-Cyano-N-(4-{2-[4-(5,6,7,8-tetrahydronaphthalen-1-yl)piperazin-1-yl]ethyl}cyclohexyl)acetamide]"
6,91 °C,"CCOCC(=O)N[C@H]1CC[C@H](CCN2CCN(c3cccc4c3CCCC4)CC2)CC1 [Example 117, 2-Ethoxy-N-(4-{2-[4-(5,6,7,8-tetrahydronaphthalen-1-yl)piperazin-1-yl]ethyl}-cyclohexyl)acetamide]"
7,164 °C,"COCC(=O)N[C@H]1CC[C@H](CCN2CCN(c3cc(C(F)(F)F)cc(C(F)(F)F)c3)CC2)CC1 [Example 118, N-(4-{2-[4-(3,5-Bistrifluoro-methylphenyl)piperazin-1-yl]ethyl}cyclohexyl)-2-methoxyacetamide]"
8,172 °C,"COCC(=O)N[C@H]1CC[C@H](CCN2CCN(c3cccc(C(F)(F)F)c3C#N)CC2)CC1 [Example 119, N-(4-{2-[4-(2-Cyano-3-trifluoromethylphenyl)piperazin-1-yl]ethyl}cyclohexyl)-2-methoxyacetamide]"
9,104 °C,"CCOCC(=O)N[C@H]1CC[C@H](CCN2CCN(c3cc(C(C)(C)C)nc(C(C)(C)C)n3)CC2)CC1 [Example 121, N-(4-{2-[4-(2,6-Di-tert-butylpyrimidin-4-yl)piperazin-1-yl]ethyl}cyclohexyl)-2-ethoxyacetamide]"
10,130 °C,"COCC(=O)N[C@H]1CC[C@H](CCN2CCN(c3cc(C(C)(C)C)nc(C(C)(C)C)n3)CC2)CC1 [Example 122, N-(4-{2-[4-(2,6-Di-tert-butylpyrimidin-4-yl)piperazin-1-yl]ethyl}cyclohexyl)-2-methoxyacetamide]"
11,210 to 214 °C,"CCOCC(=O)N[C@H]1CC[C@H](CCN2CCN(c3ccccc3OC)CC2)CC1 [Example 123, 2-Ethoxy-N-(4-{2-[4-(2-methoxyphenyl)piperazin-1-yl]ethyl}cyclohexyl)acetamide]"
12,187 °C,"COc1ccccc1N1CCN(CC[C@H]2CC[C@H](NC(=O)CC#N)CC2)CC1 [Example 124, 2-Cyano-N-(4-{2-[4-(2-methoxyphenyl)piperazin-1-yl]ethyl}cyclohexyl)acetamide]"
13,125 to 126 °C,"COCC(=O)N[C@H]1CC[C@H](CCN2CCN(c3ccccc3OC)CC2)CC1 [Example 125, 2-Methoxy-N-(4-{2-[4-(2-methoxyphenyl)piperazin-1-yl]ethyl}cyclohexyl)acetamide]"
14,227 °C,"CC(=O)NCC(=O)N[C@H]1CC[C@H](CCN2CCN(c3ccccc3)CC2)CC1 [Example 128, 2-Acetylamino-N-{4-[2-(4-phenylpiperazin-1-yl)ethyl]cyclohexyl}acetamide]"
15,100 °C,"COCC(=O)N[C@H]1CC[C@H](CCN2CCN(c3ccccc3Cl)CC2)CC1 [Example 129, N-(4-{2-[4-(2-Chlorophenyl)-piperazin-1-yl]ethyl}cyclohexyl)-2-methoxyacetamide]"
16,120 °C,"COCC(=O)N[C@H]1CC[C@H](CCN2CCN(c3cccc4c3CCCC4)CC2)CC1 [Example 130, 2-Methoxy-N-(4-{2-[4-(5,6,7,8-tetrahydronaphthalen-1-yl)piperazin-1-yl]ethyl}cyclohexyl)acetamide]"
17,194 °C,"N#CCC(=O)N[C@H]1CC[C@H](CCN2CCN(c3ccccc3Cl)CC2)CC1 [Example 131, N-(4-{2-[4-(2-Chlorophenyl)-piperazin-1-yl]ethyl}cyclohexyl)-2-cyanoacetamide]"
18,108 °C,"CCOCC(=O)N[C@H]1CC[C@H](CCN2CCN(c3ccccc3Cl)CC2)CC1 [Example 132, N-(4-{2-[4-(2-Chlorophenyl)-piperazin-1-yl]ethyl}cyclohexyl)-2-ethoxyacetamide]"
19,202 °C,N#CCC(=O)N[C@H]1CC[C@H](CCN2CCN(c3cccc(F)c3)CC2)CC1 [Example 133]

# — patent publication US8802678B2, “Carbonylated (aza) cyclohexanes as dopamine D3 receptor ligands” (Bioprojet, priority 2006, dated 2014)
